Laboratory results taken from patent publication US7135462B2, “Hepatitis C virus inhibitors” (priority 2003, dated 2006).
pEC50, pIC50: −log10 of the molar value. Where two headings read alike, the source gives them in different places.

Experiments:
[1] = target: T1, HCV NS3/4A protease complex (BMS strain) (UniProt P27958, C1454S/C1711G, species not given); assay: Recombinant HCV NS3/4A protease complex FRET peptide assay; type: biochemical, Hepatitis C virus (HCV), genotype 1a; conditions: NS3/4A BMS strain, activity range class
T1 construct: for H77 and J4L6S; fused on or other part: Three-lysine solubilising tail at the C-terminus of NS4A
Excerpt: Recombinant HCV NS3/4A Protease Complex FRET Peptide Assay
Serum from an HCV-infected patient was obtained from Dr. T. Wright, San Francisco Hospital. An engineered full-length cDNA (compliment deoxyribonucleic acid) template of the HCV genome (BMS strain) was constructed from DNA fragments obtained by reverse transcription-PCR (RT-PCR) of serum RNA (ribonucleic acid) and using primers selected on the basis of homology between other genotype 1a strains.
The H77 and J4L6S strains were used for production of recombinant NS3/4A protease complexes. […] Briefly, a three-lysine solubilizing tail was added at the 3′-end of the NS4A coding region. […] Briefly, the NS3/4A protease complex expression was induced with 0.5 millimolar (mM) Isopropyl β-D-1-thiogalactopyranoside (IPTG) for 22 hours (h) at 20° C. […] The cells were resuspended in lysis buffer (10 mL/g) consisting of 25 mM N-(2-Hydroxyethyl)piperazine-N′-(2-Ethane Sulfonic acid) (HEPES), pH 7.5, 20% glycerol, 500 mM Sodium Chloride (NaCl), 0.5% Triton X-100, 1 microgram/milliliter (“μg/mL”) lysozyme, 5 mM Magnesium Chloride (MgCl2), 1 μg/ml DnaseI, 5 mM β-Mercaptoethanol (βME), Protease inhibitor—Ethylenediamine Tetraacetic acid (EDTA) free (Roche), homogenized and incubated for 20 minutes (min) at 4° C. The homogenate was sonicated and clarified by ultra-centrifugation at 235000 g for 1 h at 4° C. Imidazole was added to the supernatant to a final concentration of 15 mM and the pH adjusted to 8.0. The crude protein extract was loaded on a Nickel—Nitrilotriacetic acid (Ni-NTA) column pre-equilibrated with buffer B (25 mM HEPES, pH 8.0, 20% glycerol, 500 mM NaCl, 0.5% Triton X-100, 15 mM imidazole, 5 mM βME). The sample was loaded at a flow rate of 1 mL/min. The column was washed with 15 column volumes of buffer C (same as buffer B except with 0.2% Triton X-100). The protein was eluted with 5 column volumes of buffer D (same as buffer C except with 200 mM Imidazole).
NS3/4A protease complex-containing fractions were pooled and loaded on a desalting column Superdex-S200 pre-equilibrated with buffer D (25 mM HEPES, pH 7.5, 20% glycerol, 300 mM NaCl, 0.2% Triton X-100, 10 mM βME). Sample was loaded at a flow rate of 1 mL/min. NS3/4A protease complex-containing fractions were pooled and concentrated to approximately 0.5 mg/ml.
The enzyme was stored at −80° C., thawed on ice and diluted prior to use in assay buffer. […] The sequence of this peptide is loosely based on the NS4A/NS4B natural cleavage site for the HCV NS3 protease except there is an ester linkage rather than an amide bond at the cleavage site. The peptide substrate was incubated with one of the three recombinant NS3/4A protease complexes, in the absence or presence of a compound of the present invention, and the formation of fluorescent reaction product was followed in real time using a Cytofluor Series 4000.
The reagents were as follow: HEPES and Glycerol (Ultrapure) were obtained from GIBCO-BRL. Dimethyl Sulfoxide (DMSO) was obtained from Sigma. β-Mercaptoethanol was obtained from Bio Rad.
Assay buffer: 50 mM HEPES, pH 7.5; 0.15 M NaCl; 0.1% Triton; 15% Glycerol; 10 mM βME. Substrate: 2 μM final concentration (from a 2 mM stock solution in DMSO stored at −20° C.). HCV NS3/4A protease type 1a (1b), 2–3 nM final concentration (from a 5 μM stock solution in 25 mM HEPES, pH 7.5, 20% glycerol, 300 mM NaCl, 0.2% Triton-X100, 10 mM βME).
The assay was performed in a 96-well polystyrene black plate from Falcon.

[2] = tested on: HCV replicon in Huh7 cells; assay: microbe, parasite or virus in culture; type: cell-based, strain 1b; conditions: Hepatitis C virus, Huh-7, 96 h; Huh7 cells expressing HCV replicon, 4 days; activity range class
Excerpt: Generation of HCV Replicon
This system enabled us to evaluate the effects of our HCV Protease compounds on HCV RNA replication. Briefly, using the HCV strain 1b sequence described in the Lohmann paper (Assession number: AJ238799), an HCV cDNA was generated encoding the 5′ internal ribosome entry site (IRES), the neomycin resistance gene, the EMCV (encephalomyocarditis viurs)-IRES and the HCV nonstructural proteins, NS3-NS5B, and 3′ non-translated region (NTR). In vitro transcripts of the cDNA were transfected into the human hepatoma cell line, Huh7. […] Resulting cell lines were characterized for positive and negative strand RNA production and protein production over time.
Huh7 cells, constitutively expressing the HCV replicon, were grown in Dulbecco's Modified Eagle Media (DMEM) containing 10% Fetal calf serum (FCS) and 1 mg/ml G418 (Gibco-BRL). Cells were seeded the night before (1.5×10^4 cells/well) in 96-well tissue-culture sterile plates. Compound and no compound controls were prepared in DMEM containing 4% FCS, 1:100 Penicillin/Streptomysin, 1:100 L-glutamine and 5% DMSO in the dilution plate (0.5% DMSO final concentration in the assay). Compound/DMSO mixes were added to the cells and incubated for 4 days at 37° C. After 4 days, plates were rinsed thoroughly with Phosphate-Buffered Saline (PBS) (3 times 150 μl). The cells were lysed with 25 μl of a lysis assay reagent containing the FRET peptide (RET S1, as described for the in vitro enzyme assay). The lysis assay reagent was made from 5× cell Luciferase cell culture lysis reagent (Promega #E153A) diluted to 1× with distilled water, NaCl added to 150 mM final, the FRET peptide diluted to 10 μM final from a 2 mM stock in 100% DMSO. The plate was then placed into the Cytofluor 4000 instrument which had been set to 340 nm excitation/490 nm emission, automatic mode for 21 cycles and the plate read in a kinetic mode. EC50 determinations were carried out as described for the IC50 determinations. […]
The percentage inhibition was calculated using the formula below: […]
The values were graphed and analyzed using XLFit to obtain the EC50 value.

Row | SMILES | pIC50 ([1]; read-out: IC50) | pEC50 [2] | pIC50 [1]
1 | C=C[C@@H]1C[C@]1(NC(=O)[C@@H]1C[C@@H](Oc2nccc3c(C(F)(F)F)cccc23)CN1C(=O)[C@@H](NC(=O)OC(C)(C)C)C(C)(C)C)C(=O)NS(=O)(=O)C1(CC)CC1 [Cpd 104] | > 7.00 | 6.00 to 7.00 | 
2 | C=C[C@@H]1C[C@]1(NC(=O)[C@@H]1C[C@@H](Oc2nccc3c(Cl)c(OC)ccc23)CN1C(=O)[C@@H](NC(=O)OC(C)(C)C)C(C)(C)C)C(=O)NS(=O)(=O)C1(CC)CC1 [Cpd 105] | > 7.00 | > 7.00 | 
3 | C=C[C@@H]1C[C@]1(NC(=O)[C@@H]1C[C@@H](Oc2nccc3c(OC)c(Cl)ccc23)CN1C(=O)[C@@H](NC(=O)OC(C)(C)C)C(C)(C)C)C(=O)NS(=O)(=O)C1(CC)CC1 [Cpd 106] | > 7.00 | > 7.00 | 
4 | C=C[C@@H]1C[C@]1(NC(=O)[C@@H]1C[C@@H](Oc2ncc(Cl)c3cc(OC)ccc23)CN1C(=O)[C@@H](NC(=O)OC(C)(C)C)C(C)(C)C)C(=O)NS(=O)(=O)C1(CC)CC1 [Cpd 107] | > 7.00 | > 7.00 | 
5 | C=C[C@@H]1C[C@]1(NC(=O)[C@@H]1C[C@@H](Oc2nccc3c4c(ccc23)OCCO4)CN1C(=O)[C@@H](NC(=O)OC(C)(C)C)C(C)(C)C)C(=O)NS(=O)(=O)C1(CC)CC1 [Cpd 108] | > 7.00 | > 7.00 | 
6 | C=C[C@@H]1C[C@]1(NC(=O)[C@@H]1C[C@@H](Oc2nccc3cc(OC)c(F)cc23)CN1C(=O)[C@@H](NC(=O)OC(C)(C)C)C(C)(C)C)C(=O)NS(=O)(=O)C1(CC)CC1 [Cpd 109] | > 7.00 | > 7.00 | 
7 | C=C[C@@H]1C[C@]1(NC(=O)[C@@H]1C[C@@H](Oc2cc3c(Cl)nccc3cc2OC)CN1C(=O)[C@@H](NC(=O)OC(C)(C)C)C(C)(C)C)C(=O)NS(=O)(=O)C1(CC)CC1 [Cpd 110] | > 7.00 | > 7.00 | 
8 | C=C[C@@H]1C[C@]1(NC(=O)[C@@H]1C[C@@H](Oc2nccc3c(Cl)cccc23)CN1C(=O)[C@@H](NC(=O)OC(C)C)C(C)(C)C)C(=O)NS(=O)(=O)C1(CC)CC1 [Cpd 111] | > 7.00 | > 7.00 | 
9 | C=C[C@@H]1C[C@]1(NC(=O)[C@@H]1C[C@@H](Oc2ncc(Cl)c3ccccc23)CN1C(=O)[C@@H](NC(=O)OC(C)C)C(C)(C)C)C(=O)NS(=O)(=O)C1(CC)CC1 [Cpd 112] | > 7.00 | 6.00 to 7.00 | 
10 | C=C[C@@H]1C[C@]1(NC(=O)[C@@H]1C[C@@H](Oc2nc(Cl)cc3c(OC)cccc23)CN1C(=O)[C@@H](NC(=O)OC(C)(C)C)C(C)(C)C)C(=O)NS(=O)(=O)C1(CC)CC1 [Cpd 113] |  | 6.00 to 7.00 | > 7.00
